The values that follow come from ChEMBL document CHEMBL4190177 (2016).

Assay [1] deals with C6. The assay can be described thus: Cytotoxicity against rat C6 cells assessed as reduction in cell viability after 72 hrs by MTT assay. Format: functional, cell-based. Background: Tetrazolium assays rely on reduction of a dye to a coloured formazan, in cell work by metabolically active cells.
The test system of assay [2] is C6. The assay can be described thus: Cytotoxicity against rat C6 cells assessed as reduction in cell viability at 5 to 50 uM after 72 hrs by MTT assay. It counts as functional, cell-based.
The subject of assay [3] is C6. The assay can be described thus: Cytotoxicity against rat C6 cells assessed as reduction in cell viability at 50 uM after 72 hrs by MTT assay relative to control. It counts as functional.
Assay [4] relates to C6. Kind of assay: Cytotoxicity against rat C6 cells assessed as reduction in cell viability at 10 uM after 72 hrs by MTT assay relative to control. It counts as functional.
Assay [5] concerns C6. The assay can be described thus: Cytotoxicity against rat C6 cells assessed as reduction in cell viability at 25 to 50 uM after 72 hrs by MTT assay. Format: functional, cell-based.
Assay [6] deals with U138-MG. Kind of assay: Cytotoxicity against human U138MG cells assessed as reduction in cell viability at 10 uM relative to control. It counts as functional.
The subject of assay [7] is C6. The assay can be described thus: Cytotoxicity against rat C6 cells assessed as reduction in cell viability at 5 uM after 72 hrs by MTT assay relative to control. Format: functional.
The subject of assay [8] is U138-MG. Kind of assay: Cytotoxicity against human U138MG cells assessed as reduction in cell viability at 150 uM relative to control. It counts as functional.
The subject of assay [9] is C6. The assay can be described thus: Cytotoxicity against rat C6 cells assessed as reduction in cell viability at 150 uM relative to control. It counts as functional.

The source made the active and inactive calls. No cut-off for these calls is given here.

Consider `CCCCCCCCCCCCCCCCOC(=O)C1=C(C)NC2=C(C(=O)CC(C)(C)C2)C1c1ccccc1` (stereo not given), for which, in the assay with C6 [1], the Activity result was “Dose-dependent effect”.
For `CCOC(=O)C1=C(C)NC2=C(C(=O)CC(C)(C)C2)C1c1ccccc1` (stereo not given), the result in the assay on C6 [2] was Active.
Regarding `CCOC(=O)C1=C(C)NC(=S)NC1c1cccc(O)c1` (stereo not given) [MONASTROL], the Activity with C6 [3] came to 50%.
In the case of `CCCCCCCCCCCCCCCCOC(=O)C1=C(C)NC2=C(C(=O)CC(C)(C)C2)C1c1cccc(O)c1` (stereo not given), the Activity entry with C6 [1] is “Dose-dependent effect”; with C6 [4] it was 40%.
Turning to `CCCCCCCCCCCCCCCCCCOC(=O)C1=C(C)NC2=C(C(=O)CC(C)(C)C2)C1c1cccc(OC)c1` (stereo not given), the result in the assay with C6 [5] was inactive. The Activity entry with C6 [1] was “Dose-dependent effect”.
As to `CCCCCCCCCCCCCCCCOC(=O)C1=C(C)NC(=O)NC1c1cccc(O)c1` (stereo not given), the Activity in the assay with U138-MG [6] came to 50%.
`CCCCCCCCCCCCCCCCCCOC(=O)C1=C(C)NC2=C(C(=O)CC(C)(C)C2)C1c1cccc(O)c1` (stereo not given): the Activity with C6 [7] is 40%; in the assay with C6 [1] it was “Dose-dependent effect”.
Turning to `CCCCCCCCCCCCCCCCCCOC(=O)C1=C(C)NC2=C(C(=O)CC(C)(C)C2)C1c1cccc([N+](=O)[O-])c1` (stereo not given), the result in the assay with C6 [5] was inactive. For the same compound, in the assay on C6 [1], the Activity result is “Dose-dependent effect”.
As for `O=Cc1cccc(O)c1` [3-HYDROXYBENZALDEHYDE], the Activity in the assay with U138-MG [8] and with C6 [9] was 30% each time.
As for `CCCCCCCCCCCCCCCCCCOC(=O)C1=C(C)NC2=C(C(=O)CC(C)(C)C2)C1c1ccc(OC)cc1` (stereo not given), in the assay with C6 [1], the Activity result is “Dose-dependent effect”.
